Paper PMC8876255 (Bioorganic & medicinal chemistry letters, 2021)

How the values were obtained:
[1] = test system: UPR markers sXbp1, HSPA5A (BiP), DDIT3 (CHOP) in MDA-MB-231 cells; assay: UPR / ER stress gene induction by qPCR; format: cell-based; settings: MDA-MB-231, 6 h, 2 times the EC50, qPCR
MDA-MB-231 cells = assay: Cancer cell viability assay; format: cell-based

N=C1C(=O)NC(=O)c2cc(-c3ccc(OCCCCNC(=O)CC45CC6CC(CC(C6)C4)C5)cc3)sc21 [Compound 7a]
accumulation of spliced Xbp1 transcription factor [1]: moderate accumulation | expression of pro-apoptotic gene CHOP (DDIT3) [1]: strongly enhanced expression

O=C(CC12CC3CC(CC(C3)C1)C2)NCCCCO [Compound 4]
inhibitory effect on cell growth (MDA-MB-231 cells; MDA-MB-231 viability assay, negative control): negligible inhibitory effects on cell growth | additive or synergistic effect with JMS-053 on viability (MDA-MB-231 cells; addition of 20–60 μM 4 to MDA-MB-231 cells treated with JMS-053): failed to detect any changes in viability

O=C(CC12CC3CC(CC(C3)C1)C2)NCCCCOc1ccc(-c2cc3c(s2)C(=O)C(=O)NC3=O)cc1 [Compound 7b]
accumulation of spliced Xbp1 transcription factor [1]: significantly lower accumulation
